{"source": "patent US20180371076A1", "about": "“MATERNAL TH17 CELLS AND PSYCHIATRIC DISORDERS” (New York University, priority 2017, published 2018)", "molecules": {"B1": {"name": "recombinant IL-6: carrier-free recombinant mouse IL-6 (R&D) (protein, UniProt P08505 25-211, looked up)", "Interleukin-6": "FPTSQVRRGDFTEDTTPNRPVYTTSQVGGLITHVLWEIVEMRKELCNGNSDCMNNDDALAENNLKLPEIQRNDGCYQTGYNQEICLLKISSGLLEYHSYLEYMKNNLKDNKKDKARVLQRDTETLIHIFNQEVKDLHKIVLPTPISNALLTDKLESQKEWLRTKTIQFILKSLEEFLKVTLRSTRQT"}, "B2": {"name": "recombinant IL-17a protein: Recombinant mouse IL-17a cytokine (R&D), injected into the fetal brain ventricle (protein, UniProt Q62386 26-158, looked up)", "Interleukin-17A": "AAIIPQSSACPNTEAKDFLQNVKVNLKVFNSLGAKVSSRRPSDYLNRSTSPWTLHRNEDPDRYPSVIWEAQCRHQRCVNAEGKLDHHMNSVLIQQEILVLKREPESCPFTFRVEKMLVGVGCTCVASIVRQAA"}}, "key": {"IL-17a": {"system": "IL-17a", "assay": "IL-17a ELISA of maternal sera and placenta/decidua extract", "format": "in vivo, mouse", "details": "for maternal serum IL-17a: serum at E14.5-E15.5, vs PBS", "method": "Cell preparation, Flow cytometry, ELISA. Embryos at each implantation site were dissected in ice-cold HBSS containing Ca^2+ and Mg^2+. Myometrium was first peeled off of the decidua and embryos were discarded. Dissected decidual and placental tissues were then minced and enzymatically dissociated in HBSS containing 0.28 Wunsch units (WU)/mL Liberase (Roche) and 30 μg/ml DNase I (Roche) for 30 min at 37° C. with intermittent mixing. Digested tissues were washed in PBS containing 5 mM EDTA and 5% fetal bovine serum and then incubated again in the same buffer for 15 min at 37° C. prior to filtration through a cell strainer. After separation on a discontinuous 40% & 80% Percoll gradient, the mononuclear cell fraction was treated with ACK lysis buffer (Lonza). Mononuclear cells (1×10^6 cells/mL) were stimulated with phorbol 12-myristate 13-acetate (PMA, 50 ng/mL; Sigma), ionomycin (500 ng/mL; Sigma) in T cell media: RPMI 1640 (Invitrogen) supplemented with 10% (v/v) heat-inactivated FBS (Hyclone), 50 U penicillin-streptomycin (Invitrogen), 2 mM glutamine, and 50 μM β-mercaptoethanol. Cell culture supernatant was used for ELISA analyses. For flow cytometry, cells were incubated for 5 h with PMA, ionomycin and GolgiStop (BD). Intracellular cytokine staining was performed according to the manufacturer's protocol (Cytofix/Cytoperm buffer set from BD with alexa647-conjugated anti-IL-17a (eBioscience) and PE-conjugated anti-IFN-γ). LSR II (BD Biosciences) and FlowJo software (Tree Star) were used for flow cytometry and analysis. Dead cells were excluded using the Live/Dead fixable aqua dead cell stain kit (Invitrogen). Placenta/decidua extract were prepared by homogenizing samples in Tissue Extraction Reagent I (Invitrogen, FN0071) in the presence of protease inhibitor cocktail (Roche, 11873580001) on ice using pestles. The homogenates were centrifuged at 4° C. at 13,000 rpm for 20 min, and the supernatants were aliquotted and frozen at −80° C. For ELISA with sera and placenta/decidua extract, IL-6 (Ebioscience), IL-17a (Biolgened), and IL-10 (BD) were measured according to the manufacturer's protocol.\nCell preparation, Flow cytometry, ELISA Embryos at each implantation site were dissected in ice-cold HBSS containing Ca2+ and Mg2+ (Gibco). Myometrium was first peeled off of the decidua and embryos were discarded. Dissected decidual and placental tissues were then minced and enzymatically dissociated in HBSS containing 0.28 Wunsch units (WU)/mL Liberase (Roche) and 30 μg/mL DNase I (Roche) for 30 min at 37° C. with intermittent mixing. Digested tissues were washed in PBS containing 5 mM EDTA and 5% fetal bovine serum and then incubated again in the same buffer for 15 min at 37° C. prior to filtration through a cell strainer. After separation on a discontinuous 40% & 80% Percoll gradient, the mononuclear cell fraction was treated with ACK lysis buffer (Lonza). Mononuclear cells (1×10^6 cells/mL) were cultured for 24 h with or without phorbol 12-myristate 13-acetate (PMA, 50 ng/mL; Sigma) and ionomycin (500 ng/mL; Sigma) in T cell media: RPMI 1640 (Invitrogen) supplemented with 10% (v/v) heat-inactivated FBS (Hyclone), 50 U penicillin-streptomycin (Invitrogen), 2 mM glutamine, and 50 μM β-mercaptoethanol. Cell culture supernatant was used for ELISA analyses. Unstimulated cells were used to prepare total RNA for qPCR analyses. For flow cytometry, cells were incubated for 5 h with PMA, ionomycin and GolgiStop (BD). […]"}, "[1]": {"system": "offspring of pregnant mice (MIA mouse model)", "assay": "Three-chamber social approach test in adult offspring", "format": "in vivo", "method": "Maternal Immune Activation. Mice were mated overnight and females were checked daily for the presence of seminal plugs, noted as embryonic day 0.5 (E0.5). On E12.5, pregnant female mice were weighed and injected with a single dose (20 mg/kg; i.p.) of poly(I:C) (Sigma Aldrich) or PBS vehicle. Each dam was returned to its cage and left undisturbed until the birth of its litter. All pups remained with the mother until weaning on postnatal day 21 (P21), at which time mice were group housed at maximum 5 per cage with same-sex littermates. For the IL-17 cytokine blockade experiment, monoclonal IL-17a blocking antibody (clone 50104; R&D) or isotype control antibody (IgG2a, clone 54447; R&D) was administered 6 h before maternal immune activation (FIG. 2) via i.p. route (500 μg/animal) or 2 days after maternal immune activation (FIG. 5) via i.p. route (500 μg/animal).\nThree-chamber social approach. Twelve-week-old male mice were tested for social behavior using a three-chamber social approach paradigm. Experimental mice were habituated for 1 h in separate clean holding cages and then introduced into a three-chamber arena with only empty object-containment cages (circular metallic cages, Stoelting Neuroscience) for a 10-min acclimation phase in two 5-min sessions in a 3-4 h period. The following day the mice were placed in the center chamber (without access to the left and right social test areas) and allowed to explore the center area for 5 min. […] Experimental mice were given 10 min to explore both chambers and measured for approach behavior as interaction time (i.e. sniffing, approach) with targets in each chamber (within 2 cm, excluding non-nose contact or exploration). Sessions were video-recorded and object exploration time and total distance moved were analyzed using the Noldus tracking system. A social preference index was calculated as the percentage of time spent investigating the social target out of the total exploration time of both objects. […]"}}, "data": [{"molecule": "poly(I:C)", "values": [{"measurement": "IL-17a in placenta/decidua extracts", "setting": "IL-17a; PBS- or poly(I:C)-treated mothers", "result": "could not be detected"}, {"measurement": "time until serum IL-17a is detected after injection", "setting": "IL-17a; poly(I:C) at E12.5", "result": "2 to 3", "unit": "days"}, {"measurement": "maternal serum IL-17a", "setting": "IL-17a; poly(I:C) at E12.5", "result": "strong increase"}, {"measurement": "maternal serum IL-17a", "setting": "IL-17a; poly(I:C) at E12.5, listed as Poly(I:C)", "result": "further increase"}, {"measurement": "serum IL-17a at later embryonic stages", "setting": "IL-17a; poly(I:C) injected mothers", "result": "continue to rise until E19.5"}, {"measurement": "serum IL-17a at E14.5", "setting": "IL-17a; poly(I:C) into pregnant dams lacking IL-6 (IL-6 KO)", "result": "failed to increase"}, {"measurement": "social interaction in adult offspring", "setting": "[1]; prenatal exposure to MIA (poly(I:C) at E12.5)", "result": "social interaction deficits"}]}, {"molecule": "B1", "values": [{"measurement": "maternal serum IL-17a at E14.5", "setting": "IL-17a; injection into wild-type (WT) mothers", "result": "sufficient to induce IL-17a levels comparable to those of poly(I:C)-injected WT mothers"}]}, {"molecule": "B2", "values": [{"measurement": "mobility (total distance in social approach test)", "setting": "[1]; intra-ventricular injection at E14.5", "result": "not due to group differences in mobility"}, {"measurement": "social approach behavior", "setting": "[1]; intra-ventricular injection at E14.5, compared with sham injection", "result": "social approach deficit"}]}]}
